Measured values as given in patent publication US9624238B2, “4H-thieno[3,2-C]chromene-based inhibitors of Notum Pectinacetylesterase and methods of their use” (Lexicon Pharmaceuticals, Inc., priority 2011, dated 2017).

What was measured:
[1] = biological target: T1, human notum pectinacetyltransferase (Homo sapiens, UniProt Q6P988); assay: Binding assay (OPTS esterase substrate, fluorimetric); assay type: biochemical
T1 construct: made in house; unpurified conditioned medium used
T1 sequence (Q6P988 20-496): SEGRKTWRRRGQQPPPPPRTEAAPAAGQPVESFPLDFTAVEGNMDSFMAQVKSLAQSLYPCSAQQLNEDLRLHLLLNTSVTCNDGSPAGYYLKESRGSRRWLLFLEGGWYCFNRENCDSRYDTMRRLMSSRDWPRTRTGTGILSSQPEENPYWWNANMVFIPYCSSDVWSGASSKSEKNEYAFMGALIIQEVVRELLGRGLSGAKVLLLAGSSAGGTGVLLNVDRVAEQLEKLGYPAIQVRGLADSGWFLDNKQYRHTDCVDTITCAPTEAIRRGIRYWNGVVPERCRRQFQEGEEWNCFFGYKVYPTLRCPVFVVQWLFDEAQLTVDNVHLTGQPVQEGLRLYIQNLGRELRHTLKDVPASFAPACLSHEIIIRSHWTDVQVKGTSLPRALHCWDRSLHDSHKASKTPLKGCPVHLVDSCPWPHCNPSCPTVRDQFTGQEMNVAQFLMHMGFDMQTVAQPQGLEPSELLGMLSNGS
Procedure: Plasmid containing human notum pectinacetyltransferase in pcDNA3.1(+) vector was transfected into HEK (293 cells and clones were selecting by growing in presence of 400 ug/mL of G418. Condition media from these cells was used for the assay.

[2] = biological target: T1, human notum pectinacetyltransferase; assay: Reporter assay (CellSensor LEF/TCF-bla FreeStyle 293F cells, Wnt3a and notum conditioned media); assay type: cell-based
[3] = given as numeric bound above the legend's highest class
[4] = given as a numeric bound above the legend's range

Compound	IC50 ([1]; class symbols) [nM]	EC50 ([2]; class symbols) [nM]	further results
NC(=O)c1cc2c(s1)-c1ccsc1CC2	< 50	< 50	–
O=C(O)c1cc2c(s1)-c1ccsc1CC2	< 50	< 500	–
O=C(O)c1cc2c(s1)-c1ccccc1S(=O)(=O)CC2	–	< 1000	IC50 [1, 3]: > 2000 nM
O=C(O)c1cc2c(s1)-c1ccccc1SCC2	–	< 100	IC50 [1, 3]: > 2000 nM
COc1ccc2c(c1Br)CCc1cc(C(N)=O)sc1-2	< 50	< 50	–
NC(=O)c1cc2c(s1)-c1cccc(F)c1CC2	< 50	< 50	–
COc1ccc2c(c1F)CCc1cc(C(=O)O)sc1-2	< 100	< 50	–
COc1cccc2c1OCc1cc(C(=O)O)sc1-2	–	< 500	IC50 [1, 4]: > 2000 nM
COc1cccc2c1S(=O)(=O)Cc1cc(C(=O)O)sc1-2	–	< 1000	IC50 [1, 4]: > 2000 nM
COc1cccc2c1CCc1cc(C(=O)O)sc1-2	–	< 50	IC50 [1, 3]: > 2000 nM
Cc1ccc(C)c2c1-c1sc(C(=O)O)cc1CS2(=O)=O	–	< 500	IC50 [1, 4]: > 2000 nM
Cc1ccc(C)c2c1SCc1cc(C(=O)O)sc1-2	–	< 50	IC50 [1, 4]: > 2000 nM
O=C(O)c1cc2c(s1)-c1sc(Cl)cc1CC2	< 50	< 500	–
COC(C)(C)CNC(=O)c1cc2c(s1)-c1ccc(Cl)c(F)c1OC2	–	< 500	IC50 [1, 3]: > 2000 nM
O=C(NCCN1CCOCC1)c1cc2c(s1)-c1ccc(Cl)c(F)c1OC2	–	< 500	IC50 [1, 3]: > 2000 nM
N#Cc1ccc2c(c1)OCc1cc(C(N)=O)sc1-2	–	–	IC50 [1, 4]: > 2000 nM; EC50 [2, 4]: > 1000 nM
N#Cc1ccc2c(c1)CCc1cc(C(=O)O)sc1-2	–	< 1000	IC50 [1, 3]: > 2000 nM
COc1ccc2c(c1)OCc1cc(C(N)=O)sc1-2	< 1000	< 100	–
NC(=O)c1cc2c(s1)-c1cc(F)c(F)cc1OC2	< 100	< 50	–
O=C(O)c1cc2c(s1)-c1cc(F)c(F)cc1OC2	< 100	< 50	–
Cc1cc(C)c2c(c1)OCc1cc(C(=O)O)sc1-2	–	< 50	IC50 [1, 4]: > 2000 nM
NC(=O)c1cc2c(s1)-c1cc(Br)ccc1OC2	< 1000	< 50	–
O=C(O)c1cc2c(s1)-c1cc(Br)ccc1OC2	< 100	< 50	–
NC(=O)c1cc2c(s1)-c1cc(Cl)c(C(F)(F)F)cc1OC2	–	< 500	IC50 [1, 4]: > 2000 nM
O=C(O)c1cc2ccc3scc(Cl)c3c2s1	< 50	< 1000	–
N#Cc1ccc2c(c1)-c1sc(C(=O)O)cc1CC2	–	< 1000	IC50 [1, 3]: > 2000 nM
N#Cc1cc2c(cc1F)OCc1cc(C(=O)O)sc1-2	–	< 100	IC50 [1, 4]: > 2000 nM

Compound	IC50 ([1]; class symbols) [nM]	EC50 ([2]; class symbols) [nM]	further results
COc1cc2c(cc1C#N)-c1sc(C(=O)O)cc1CC2	–	–	IC50 [1, 4]: > 2000 nM; EC50 [2, 4]: > 1000 nM
Cc1cc2c(cc1F)-c1sc(C(=O)O)cc1CS2	< 100	< 50	–
CC(C)c1ccc2c(c1)-c1sc(C(N)=O)cc1CO2	–	< 1000	IC50 [1, 4]: > 2000 nM
CC(C)c1ccc2c(c1)-c1sc(C(=O)O)cc1CO2	–	< 100	IC50 [1, 4]: > 2000 nM
COc1ccc2c(c1)-c1sc(C(=O)O)cc1CS2(=O)=O	–	< 500	IC50 [1, 4]: > 2000 nM
COc1ccc2c(c1)-c1sc(C(=O)O)cc1CC2	–	< 500	IC50 [1, 3]: > 2000 nM
COCCNC(=O)c1cc2c(s1)-c1cc(F)ccc1OCC2	–	< 500	IC50 [1, 3]: > 2000 nM
O=C(NCCn1ccnc1)c1cc2c(s1)-c1cccc(F)c1CC2	–	< 500	IC50 [1, 4]: > 2000 nM
COCCNC(=O)c1cc2c(s1)-c1ccccc1CCC2	–	< 500	IC50 [1, 3]: > 2000 nM
O=C(NC1CC1)c1cc2c(s1)-c1ccccc1CC2	–	< 50	IC50 [1, 4]: > 2000 nM
CCOC(=O)c1cc2c(s1)-c1cccc(OC)c1CC2	–	< 500	IC50 [1, 3]: > 2000 nM
CCOC(=O)c1cc2c(s1)-c1cc(OC)ccc1CC2	–	–	IC50 [1, 3]: > 2000 nM; EC50 [2, 3]: > 1000 nM
O=C(O)C1CN(C(=O)c2cc3c(s2)-c2ccc(Cl)c(Cl)c2OC3)CC1c1ccccc1F (racemic)	< 50	< 50	–
Cc1cc(C)c2c(c1)-c1sc(C(=O)NCC(=O)O)cc1CC2 [2-(6,8-dimethyl-4,5-dihydronaphtho[1,2-b]thiophene-2-carboxamido)acetic acid]	< 1000	< 100	–
Nc1c(C(=O)O)sc2c1CSc1ccccc1-2 [3-amino-4H-thieno[3,2-c]thiochromene-2-carboxylic acid]	< 1000	< 50	–
NC(=O)c1cc2c(s1)-c1ccccc1OC2 [4H-thieno[3,2-c]chromene-2-carboxamide]	< 50	< 50	–
O=C(O)c1cc2c(s1)-c1cc(F)cc(F)c1S(=O)(=O)C2 [6,8-difluoro-4H-thieno[3,2-c]thiochromene-2-carboxylic acid 5,5-dioxide]	< 1000	< 500	–
O=C(O)c1cc2c(s1)-c1cc(F)cc(F)c1[S+]([O-])C2 (stereo not drawn) [6,8-difluoro-4H-thieno[3,2-c]thiochromene-2-carboxylic acid 5-oxide]	–	< 500	IC50 [1, 3]: > 2000 nM
Cc1cc(C)c2c(c1)-c1sc(C(N)=O)cc1CC2 [6,8-dimethyl-4,5-dihydronaphtho[1,2-b]thiophene-2-carboxamide]	< 1000	< 50	–
NC(=O)c1cc2c(s1)-c1c(F)ccc(F)c1SC2 [6,9-difluoro-4H-thieno[3,2-c]thiochromene-2-carboxamide]	< 50	< 50	–
O=C(O)c1cc2c(s1)-c1cccc(F)c1OC2 [6-fluoro-4H-thieno[3,2-c]chromene-2-carboxylic acid]	< 1000	< 50	–
NC(=O)c1cc2c(s1)-c1c(F)cc(F)cc1OC2 [7,9-difluoro-4H-thieno[3,2-c]chromene-2-carboxamide]	< 50	< 50	–
COc1ccc2c(c1)CCc1cc(C(=O)O)sc1-2 [7-methoxy-4,5-dihydronaphtho[1,2-b]thiophene-2-carboxylic acid]	< 2000	< 50	–
NCCNC(=O)c1cc2c(s1)-c1ccccc1CC2 [N-(2-aminoethyl)-4,5-dihydronaphtho[1,2-b]thiophene-2-carboxamide]	< 2000	< 500	–
O=C(NCCO)c1cc2c(s1)-c1ccccc1CC2 [N-(2-hydroxyethyl)-4,5-dihydronaphtho[1,2-b]thiophene-2-carboxamide]	< 1000	< 50	–
CCOC(=O)c1cc2c(s1)-c1ccc(C)c(C#N)c1CC2 [ethyl 6-cyano-7-methyl-4,5-dihydronaphtho[1,2-b]thiophene-2-carboxylate]	< 50	< 50	–
CCOC(=O)c1cc2c(s1)-c1ccc(OC)cc1CC2 [ethyl 7-methoxy-4,5-dihydronaphtho[1,2-b]thiophene-2-carboxylate]	–	< 500	IC50 [1, 3]: > 2000 nM
